Data reported in paper PMC5855875, “Teixobactin analogues reveal enduracididine to be non-essential for highly potent antibacterial activity and lipid II binding” (Chemical Science, 2017).
Values after ≈ are worked out from the molar mass of the structure shown. Bridge positions count the residues as written; N and C are the ends. Square brackets hold non-standard residues; d marks the D form. Peptide text beside a SMILES is read from it. d(aIle) = CC[C@H](C)[C@@H](N)C(=O)O; dNMeF = CN[C@H](Cc1ccccc1)C(=O)O

Experiments:
[1] = tested on: MRSA ATCC 33591; test: microbe, parasite or virus in culture; conditions: ATCC 33591, 24 h
Procedure: (§1) were grown in Mueller Hinton broth (Oxoid) in triplicate. All incubations were at 37°C. Dilutions were carried out in triplicate. 100 µl of autoclaved Mueller Hinton broth was added to wells 2-12 in a 96-well plate. 200 µl of the peptide was added to well one at a concentration of 256 µg/mL. 100µl of peptide in well one was taken up and pipetted into well two. The mixture was then mixed via pipetting before 100µl was taken up and pipetted into well three. This process was repeated up to well 11. Once […]
(§2) peptide present. Thus, the concentrations (in µg/mL) were: 256, 128, 64, 32, 16, 8, 4, 2, 1, 0.5, 0.25 and no peptide present. Each well was then inoculated with 100µl of bacteria that had been diluted to an […]
(§3) This was repeated three times. The 96-well plates were then incubated at 37°C for 24 hours. The MIC was determined to be the lowest concentration at which there was no growth visible. […]
(§4) was repeated at an altered initial concentration of 64 µg/ml. Therefore, the new concentrations for MIC […]
(§5) VIII. MIC testing (extended panel)
(§6) Bacterial cultures were grown overnight i n Mueller-Hinton Agar (MHA) plates and adjusted to a final concentration of 10 5 – 106 CFU/ml. 100 µl of inoculum in Meuller -Hinton broth (MHB) was mixed with equal volume of peptides (dissolved in MHB) at 2x their concentration in a 96 well plate. In parallel experiments, MIC values were determined in the media containing polysorbate 80 (0 .002%, v/v) to […]

[2] = tested on: MRSA 1: MRSA ATCC 700699; test: microbe, parasite or virus in culture
Procedure: as §5, §6
(§7) prevent non-specific adsorption of the peptides to plastic surfaces. The final peptides concentrations […]
(§8) Positive and negative controls contained 200 µl of inoculum without any peptide dissolved in broth, respectively. The 96 well plates were then incubated at 37 °C for 24 h.
(§9) All the experiments were performed in two independent duplicates and the MIC was determined as the […]
(§10) Minimum bactericidal concentration
(§11) The lowest concentration in which no visible colonies could be detected was taken as the MBC.
(§12) 80. Strain information: MRSA 1: MRSA ATCC 700699, MRSA 2: MRSA DR 42412 (sputum), MRSA
(§13) 3: MRSA DM21455 (eye). […] Staphylococcus aureus ATCC

[3] = tested on: MRSA 3: MRSA DM21455 (eye); test: microbe, parasite or virus in culture
Procedure: as §5, §6, §7, §8, §9, §10, §11, §12, §13

[4] = tested on: Staphylococcus aureus ATCC 29213; test: microbe, parasite or virus in culture
Procedure: as §5, §6, §7, §8, §9, §10, §11, §12, §13

[5] = tested on: MRSA 2: MRSA DR 42412 (sputum); test: microbe, parasite or virus in culture
Procedure: as §5, §6, §7
(§14) Positive and negative controls contained 200 µl of inoculum without any peptide dissolved in broth, respectively. The 96 well plates were then incubated at 37 °C for 24 h. […]
as §12, §13

[6] = tested on: VRE 1: VRE ATCC 700802; test: organism not typed
Procedure: as §5, §6, §7, §14, §12, §13

[7] = tested on: VRE 2: VRE ATCC 29212; test: organism not typed
Procedure: as §5, §6, §7, §14, §12, §13

[8] = tested on: M. smegmatis ATCC 607; test: microbe, parasite or virus in culture; conditions: ATCC 607, 72 h
Procedure: as §1, §2, §3, §4
Middlebrook 7H9 broth (SIGMA) supplemented to 5% Middlebrook ADC (SIGMA) growth

[9] = tested on: MRSA DM21455; test: Time-kill kinetics; type: cell-based, Methicillin-resistant Staphylococcus aureus; conditions: 0.5 μg mL^–1; MHB containing 0.002% v/v polysorbate 80; 37 °C; average of two independent experiments
Procedure: IX. Time-dependent killing of bacteria by teixobactin analogues 12 and 13 Time-kill kinetics against MRSA DM21455 strains (clinical isolates from patients) was carried out in MHB. Cultures were grown overnight in MHA plates and adjusted to a final inoculum of 10^5 – 10^6 CFU/ml in MHB (containing 0.002% v/v, polysorbate 80) with teixobactin analogues 12 and 13 maintained at a final concentration of 0.5 µg/ml. For vancomycin, the concentration was varied from 0.5 – 16 µg/ml without polysorbate 80. The tubes were then incubated at 37 °C. 100 µl of cell suspension was withdrawn at various time points (0, 2, 4, 8, 24 h), serially diluted (101-105 fold dilutions) and plated onto a MHA plates and incubated for 24 h at 37 °C.
Colonies were then enumerated […]. Colony counting too numerous to count (>300 colonies) was taken as 1010 CFU. Average values from two independent experiments are reported. […]
(also on this page, place not known: polyso rbate vancomycin , concentr ation 80 . wer e µ l (10 1-105 10 10 previously n - TL C three S76: (Ala10-teixobactin) literature.7 Lipid II Lipid II: Compound 8 = 1:1 Lipid II: Compound 16 = 1:1 Lipid II: Compound 8 = 1:2 Lipid II: Compound 16 = 1:2 Lipid II: Compound 8 = 1:4)

CC[C@H](C)[C@@H]1NC(=O)[C@H](C)NC(=O)[C@H](NC(=O)[C@H](CO)NC(=O)[C@@H](NC(=O)[C@H](NC(=O)[C@@H](CCC(N)=O)NC(=O)[C@H](CO)NC(=O)[C@@H](NC(=O)[C@@H](Cc2ccccc2)NC)[C@@H](C)CC)[C@@H](C)CC)[C@@H](C)CC)[C@H](C)OC(=O)[C@H]([C@@H](C)CC)NC1=O [Compound 12, Ile10-teixobactin] (H-[dNMeF]IS[dQ][d(aIle)]IS[dT]AII; ester 8-C)
MIC [1]: 0.25 μg mL^–1 | MIC ([2]; ATCC 700699, 24 h): 0.25 μg mL^–1 | MIC (without polysorbate 80) ([2]; ATCC 700699, 24 h): 2 µg/mL (≈ 1.66 µM) | MBC ([2]; MRSA 1 (MRSA ATCC 700699), plated on MHA, 37 °C, 24 h): 1 μg mL^–1 | MIC (with polysorbate 80) ([2]; MRSA 1, MHB containing polysorbate 80 (0.002%, v/v), 37 °C, 24 h, two independent duplicates): 0.25 µg/mL (≈ 0.208 µM) | MIC ([3]; 3: DM21455 (eye, 24 h)): ≤0.0625 μg mL^–1 | MIC (without polysorbate 80) ([3]; 3: DM21455 (eye, 24 h)): 2 µg/mL (≈ 1.66 µM) | MBC ([3]; MRSA 3 (MRSA DM21455), plated on MHA, 37 °C, 24 h): 0.125 μg mL^–1 | MIC (with polysorbate 80) ([3]; MRSA 3, MHB containing polysorbate 80 (0.002%, v/v), 37 °C, 24 h): ≤ 0.0625 µg/mL | MIC ([4]; ATCC 29213, 24 h): ≤0.0625 μg mL^–1 | MIC (without polysorbate 80) ([4]; ATCC 29213, 24 h): 1 µg/mL (≈ 0.832 µM) | MIC (with polysorbate 80) ([4]; S. aureus ATCC 29213, MHB containing polysorbate 80 (0.002%, v/v), 37 °C, 24 h): ≤ 0.0625 µg/mL | MBC ([4]; Staphylococcus aureus ATCC 29213, plated on MHA, 37 °C, 24 h): 0.125 μg mL^–1 | MIC ([5]; 2: DR 42412 (sputum, 24 h)): ≤0.0625 μg mL^–1 | MIC (without polysorbate 80) ([5]; 2: DR 42412 (sputum, 24 h)): 2 µg/mL (≈ 1.66 µM) | MIC (with polysorbate 80) ([5]; MRSA 2, MHB containing polysorbate 80 (0.002%, v/v), 37 °C, 24 h): ≤ 0.0625 µg/mL | MIC (without polysorbate 80) ([6]; ATCC 700802, 24 h): 1 µg/mL (≈ 0.832 µM) | MIC (with polysorbate 80) ([6]; VRE 1, MHB containing polysorbate 80 (0.002%, v/v), 37 °C, 24 h): ≤ 0.0625 µg/mL | MIC (without polysorbate 80) ([7]; ATCC 29212, 24 h): 1 µg/mL (≈ 0.832 µM) | MIC (with polysorbate 80) ([7]; VRE 2, MHB containing polysorbate 80 (0.002%, v/v), 37 °C, 24 h): ≤ 0.0625 µg/mL | MIC [8]: 0.5 μg mL^–1 | time to complete bactericidal activity [9]: ≤ 8 h
